Experimental findings from patent US4407812A, “Etheral imidazoles and use in treatment of thromboses” (Laboratoires Chauvin-Blache, priority 1980, dated 1983) are described below.

Data set [1] addresses T1, platelet thromboxane synthetase (Homo sapiens, UniProt P24557).
T1 construct: endogenous in cells; host or cells: washed platelets from platelet-rich plasma of venous blood
T1 sequence (P24557 1-533): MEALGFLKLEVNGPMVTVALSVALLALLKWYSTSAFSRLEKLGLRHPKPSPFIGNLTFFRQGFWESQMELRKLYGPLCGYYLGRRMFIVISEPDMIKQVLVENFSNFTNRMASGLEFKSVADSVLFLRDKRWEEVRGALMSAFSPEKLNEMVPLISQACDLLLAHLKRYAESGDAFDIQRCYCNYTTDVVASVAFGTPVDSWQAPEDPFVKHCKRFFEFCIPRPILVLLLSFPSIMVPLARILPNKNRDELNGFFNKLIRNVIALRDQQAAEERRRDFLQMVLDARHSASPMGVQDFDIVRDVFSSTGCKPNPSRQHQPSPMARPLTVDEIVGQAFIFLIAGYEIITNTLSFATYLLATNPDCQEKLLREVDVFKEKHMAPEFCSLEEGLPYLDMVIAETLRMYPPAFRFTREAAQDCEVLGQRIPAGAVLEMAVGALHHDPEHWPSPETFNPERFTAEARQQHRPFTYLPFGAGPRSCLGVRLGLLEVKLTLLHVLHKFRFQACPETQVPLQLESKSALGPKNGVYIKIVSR
The experiment in a line: Inhibition of platelet thromboxane synthetase (14C-arachidonic acid incubated with washed platelet suspension, TLC). In kind it is cell-based. The following applies: for IC50: 14C-arachidonic acid, 10 min, 37° C., pH 7.5, read-out: 50% inhibitory concentration (IC50). Here is the method:
1.1 Inhibition of platelet thromboxane synthetase
Platelet rich plasma (PRP) is prepared by centrifugation of venous blood at 150 g×10 min. The platelets are sedimented at 2000 g×20 min. and washed in a tris-HCl buffer at pH 7.5 (15 mM) containing EDTA (1.5 mM), NaCl, (150 mM) and KCl (5 mM). The platelet pellet is then suspended in a volume of tris-HCl (50 mM) at pH 7.5 corresponding to one-half the original PRP volume. Aliquots of platelet suspension (0.5 ml) are incubated with 1 μg ^14 C-arachidonic acid (specific activity=50 mCi/mmole) as the Na salt for 10 min. at 37° C. in the presence or the absence of test material. On completion of the reaction, the incubate is cooled to 0°-4° C., made acidic and salted by addition of citric acid and NaCl and then extracted with 2×2 ml ethyl acetate. A PGE2 standard is added to the extract which, after evaporation to dryness, is submitted to a bidimensional chromatography over a thin layer of silica (Merck F 254) in the systems: (1) benzene/dioxan/acetic acid (60:30:3); (2) chloroform/methanol/acetic acid/water (90:8:1:0.8).
The PGE2 standard is visualized with phosphomolybdic acid in the hot. The radioactivity corresponding to the metabolites of arachidonic acid is measured with a Berthold scanner. […]

The subject of data set [2] is collagen-induced platelet aggregation. The experiment in a line: Inhibition of collagen-induced platelet aggregation. It counts as cell-based. Particulars: Homo sapiens, collagen 20 μg, control 100. The procedure:
(§1) 3--Inhibition of collagen-induced platelet aggregation and determination of the inhibition of thromboxane synthesis.
(§2) Venous blood sampled from volunteers is collected on sodium citrate. The platelet rich plasma (PRP) is prepared by centrifugation at 150 g×10 min.
(§3) 300 μl PRP are incubated in siliconized tubes in an aggregometer in the presence or the absence of test material dissolved in 100 μl buffer, and 20 μg collagen (Stago) are then added. Platelet aggregation is recorded by the decrease of the optical density. After 4 minutes, an acetylsalicylic acid solution (2×10^-4 M final) is added to block the synthesis of prostanoids, and thromboxane B2 is titrated in the liquid phase of the incubate by radioimmunoassay.

For the next data set, the system named is thromboxane synthesis. Kind of data set: Inhibition of thromboxane synthesis in collagen-stimulated PRP (thromboxane B2 radioimmunoassay). In kind it is cell-based, human. The following applies: collagen 20 μg, control 900. The procedure: as §1, §2, §3
Data set [3] relates to arachidonic acid-induced platelet aggregation. Kind of data set: Ex vivo platelet aggregation in rabbits (arachidonic acid-induced). The following applies: 5 mg/kg subcutaneous, two consecutive days, 2 hrs after second administration, arachidonic acid 2 mM. On the set-up: species or system rabbit. The procedure:
2.1 Ex vivo platelet aggregation in rabbits
Groups of 3 male rabbits are treated subcutaneously for two consecutive days and their plasma is taken two hrs after the second administration. Arachidonic acid-induced (2 mM) platelet aggregation is measured by the turbidimetric method according to Born.

A short description of data set [4]: Bleeding time (ear) in rabbits. In kind it is in vivo, rabbit. The following applies: 5 mg/kg subcutaneous, mean ± standard deviation. Here is the method:
2.2 Bleeding time (ear) in rabbits
Groups of 3 male rabbits are treated subcutaneously with the test materials. Bleeding time (BT) is determined just before, and then 2 hours and 4 hours after their administration according to a standard procedure, by a "blind" acting experimenter.

Data set [5] can be described thus: Acute toxicity, LD50 on intraperitoneal administration to Wistar rats. The following applies: rat, in vivo, ip, mean ± 5% confidence interval. The source says:
(§4) In Table VI are set forth results of the determination of the LD50 of Compound A on intraperitoneal administration to Wistar rats and Swiss mice.

Data set [6] can be described thus: Acute toxicity, LD50 on intraperitoneal administration to Swiss mice. The following applies: mouse, in vivo, ip, mean ± 5% confidence interval.
Excerpt: as §4

Each structure is given as a SMILES string. Counter-ions that a name gives are not always drawn.

In the case of `CCCCCC(/C=C/n1ccnc1)OC(=O)c1cccnc1` (stereo not drawn) [Compound B, (E)-1-(3-hydroxy-octen-1-yl)imidazole nicotinic ester dihydrochloride], in data set [1] (platelet suspension), the IC50 came out at 1 µM. This compound showed an activity at 10 µM in data set [2] (10^-5 M) of 7%. This compound showed an activity at 1 µM in data set [2] (10^-6 M) of 50%. Also, the “T × B2 formed” value is 100 pmole/ml PRP in the data set on thromboxane synthesis (10^-5 M) and 400 pmole/ml PRP in the data set with thromboxane synthesis (10^-6 M).
In the case of `CCCCCC(/C=C/n1ccnc1)OCc1ccccc1` (stereo not drawn) [F], the IC50 in data set [1] (platelet suspension) is 1 µM.
In general, LD50 refers to the dose at which mortality reaches 50%. A higher LD50 goes with lower toxicity. Turning to `CCCCCC(O)/C=C/n1ccnc1` (racemic) [Compound A, (E)-1-(3-hydroxy-octen-1-yl)imidazole (racemic)], the IC50 in data set [1] (platelet suspension) is 2.5 µM. This compound gave a Deaggregation rate in data set [3] (controls 5) of 3 arbitrary units. In data set [3] (controls 40), the Maximum aggregation is given as 28 % of maximum aggregation. The Aggregation rate in data set [3] (controls 56) is 32 arbitrary units. In data set [4] (2 hours after administration, controls 85 ± 31), the “Bleeding time, Time 2 hours” value was found to be 165 ± 38 s. In data set [4] (4 hours after administration, controls 87 ± 29), the “Bleeding time, Time 4 hours” value is 102 ± 19 s. Moreover, the “Bleeding time, Time 0” value in data set [4] (just before administration, controls 70 ± 23) stood at 80 ± 27 s. Also, the LD50 in data set [5] (F) is 250 ± 16 mg/kg; in data set [5] (M), 270 ± 12 mg/kg; in data set [6] (F) it was 164 ± 6 mg/kg; in data set [6] (M), 166 ± 7 mg/kg.
On to `CCCCCC(/C=C/n1ccnc1)OCc1ccccn1` (stereo not drawn) [G, (E)-1-(3-hydroxy-octen-1-yl)imidazole 2-pyridyl methyl ether fumarate], for which, in data set [1] (platelet suspension), the IC50 turned out to be 1.5 µM.
On the same count and under the same terms, as for `CCCCCC(/C=C/n1ccnc1)OC(=O)c1ccccc1` (stereo not drawn) [C], the figure is 1.5 µM.
Consider `c1c[nH]cn1` [Imidazole, imidazole], for which the “inhibition of the formation of thromboxane A2 (FIG. 2)” value in data set [1] (measured by its stable degradation product) is listed as “inhibits the formation of thromboxane A2”. Further, in data set [1] (platelet suspension), the “PGE2 formed concomitantly to thromboxane inhibition (FIG. 2)” value is “increasing amounts of PGE2 are formed” and the IC50 was determined as 50 µM.
`CCCCCC(=O)OC(/C=C/n1ccnc1)CCCCC` (stereo not drawn) [E]: the IC50 in data set [1] (platelet suspension) was 1.5 µM.
Still for that read-out and setting: the result for `CCCCCC(/C=C/n1ccnc1)OC(C)=O` (stereo not drawn) [D] reads 1.5 µM.
